# Values of other authors in US20230111712A1, “STABLE REACTIVE COMPOSITIONS FOR BIOCONJUGATION, PROBES, AND PROTEIN LABELING” (ARIZONA BOARD OF REGENTS ON BEHALF OF THE UNIVERSITY OF …, priority 2020, published 2023).
# Settings: reported value
compound,measurement,value
"CCCN [propyl ammonium, propyl amine]",pKa,10.5
